In patent US7135466B2 (Kirin Beer Kabushiki Kaisha, priority 1999, dated 2006):

Columns and labels:
[1] = target: T1, PDGF-Ra (Homo sapiens, UniProt P16234); assay: Inhibitory activity against PDGF-Ra phosphorylation by PDGF-AA stimulation using G292; assay type: cell-based; conditions: for IC50: > means inhibition at indicated concentration not more than 50%, < and << not less than 50%, read-out: PDGF (E) IC50; for inhibition at 0.1 µM: G292, figure in parentheses in >100( ), at 100 nM, read-out: PDGF (E) inhibition (%) at 100 nM
T1 construct: host or cells: G-292 human osteosarcoma cells
Outline: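 G-292 human osteosarcoma cells, serum-starved overnight in 0.1% FBS, were pretreated with compound in DMSO for 1 hr at 37 °C, then stimulated with 50 ng/ml PDGF-AA for 5 min. Lysates were captured on anti-phosphotyrosine PY-20 plates and probed with anti-PDGF-Ra plus HRP secondary; absorbance read at 450 nm.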

[2] = target: T2, c-kit (Homo sapiens, UniProt P10721); assay: Inhibitory activity against c-kit autophosphorylation (MO7e cells, h-SCF); assay type: cell-based; conditions: for inhibition at 1 µM: Mo7e, figure in parentheses in −( ), at 1000 nM; for IC50: MO7e cells, h-SCF stimulation, read-out: c-kit IC50
T2 construct: MO7e (human megakaryocytic leukemia cell line) which had been arrested for 20 hr; endogenous in cells; host or cells: MO7e human megakaryocytic leukemia cell line
Outline: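 MO7e cells, arrested for 20 hr, were pretreated with test compound in DMSO for 1 hr and then stimulated with 50 ng/ml h-SCF for 5 min before lysis. Lysates were captured on immobilized anti-phosphotyrosine PY-20, probed with anti-c-kit antibody and HRP anti-rabbit IgG, and read colorimetrically at 450 nm.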

T1 sequence (P16234 24-1089): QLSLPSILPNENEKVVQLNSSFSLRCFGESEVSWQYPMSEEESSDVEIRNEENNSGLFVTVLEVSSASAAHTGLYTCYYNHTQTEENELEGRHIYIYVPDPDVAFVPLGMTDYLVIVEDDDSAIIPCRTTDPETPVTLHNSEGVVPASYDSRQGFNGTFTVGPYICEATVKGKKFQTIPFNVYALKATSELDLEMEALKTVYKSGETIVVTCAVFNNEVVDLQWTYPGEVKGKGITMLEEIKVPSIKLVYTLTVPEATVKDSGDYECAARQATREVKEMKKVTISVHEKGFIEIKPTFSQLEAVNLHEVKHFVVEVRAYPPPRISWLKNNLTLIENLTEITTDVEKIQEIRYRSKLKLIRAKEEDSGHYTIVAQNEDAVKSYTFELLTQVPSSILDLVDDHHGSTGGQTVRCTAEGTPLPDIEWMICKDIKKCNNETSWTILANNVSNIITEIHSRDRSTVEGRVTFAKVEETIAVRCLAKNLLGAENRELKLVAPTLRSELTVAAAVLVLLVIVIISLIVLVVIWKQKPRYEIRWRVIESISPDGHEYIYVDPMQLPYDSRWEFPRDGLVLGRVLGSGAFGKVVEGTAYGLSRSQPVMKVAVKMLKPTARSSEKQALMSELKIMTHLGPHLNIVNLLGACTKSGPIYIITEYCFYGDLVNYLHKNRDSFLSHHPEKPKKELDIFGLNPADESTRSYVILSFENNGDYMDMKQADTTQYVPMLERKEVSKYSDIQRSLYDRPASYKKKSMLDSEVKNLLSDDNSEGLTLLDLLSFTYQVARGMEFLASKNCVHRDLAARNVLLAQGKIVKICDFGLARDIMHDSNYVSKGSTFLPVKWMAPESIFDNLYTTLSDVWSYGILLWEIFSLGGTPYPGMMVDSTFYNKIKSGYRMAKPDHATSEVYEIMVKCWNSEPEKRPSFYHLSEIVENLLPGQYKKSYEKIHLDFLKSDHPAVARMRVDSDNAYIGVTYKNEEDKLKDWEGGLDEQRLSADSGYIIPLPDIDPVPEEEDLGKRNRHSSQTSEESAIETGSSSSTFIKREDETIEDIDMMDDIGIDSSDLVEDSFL
T2 sequence (P10721 26-976): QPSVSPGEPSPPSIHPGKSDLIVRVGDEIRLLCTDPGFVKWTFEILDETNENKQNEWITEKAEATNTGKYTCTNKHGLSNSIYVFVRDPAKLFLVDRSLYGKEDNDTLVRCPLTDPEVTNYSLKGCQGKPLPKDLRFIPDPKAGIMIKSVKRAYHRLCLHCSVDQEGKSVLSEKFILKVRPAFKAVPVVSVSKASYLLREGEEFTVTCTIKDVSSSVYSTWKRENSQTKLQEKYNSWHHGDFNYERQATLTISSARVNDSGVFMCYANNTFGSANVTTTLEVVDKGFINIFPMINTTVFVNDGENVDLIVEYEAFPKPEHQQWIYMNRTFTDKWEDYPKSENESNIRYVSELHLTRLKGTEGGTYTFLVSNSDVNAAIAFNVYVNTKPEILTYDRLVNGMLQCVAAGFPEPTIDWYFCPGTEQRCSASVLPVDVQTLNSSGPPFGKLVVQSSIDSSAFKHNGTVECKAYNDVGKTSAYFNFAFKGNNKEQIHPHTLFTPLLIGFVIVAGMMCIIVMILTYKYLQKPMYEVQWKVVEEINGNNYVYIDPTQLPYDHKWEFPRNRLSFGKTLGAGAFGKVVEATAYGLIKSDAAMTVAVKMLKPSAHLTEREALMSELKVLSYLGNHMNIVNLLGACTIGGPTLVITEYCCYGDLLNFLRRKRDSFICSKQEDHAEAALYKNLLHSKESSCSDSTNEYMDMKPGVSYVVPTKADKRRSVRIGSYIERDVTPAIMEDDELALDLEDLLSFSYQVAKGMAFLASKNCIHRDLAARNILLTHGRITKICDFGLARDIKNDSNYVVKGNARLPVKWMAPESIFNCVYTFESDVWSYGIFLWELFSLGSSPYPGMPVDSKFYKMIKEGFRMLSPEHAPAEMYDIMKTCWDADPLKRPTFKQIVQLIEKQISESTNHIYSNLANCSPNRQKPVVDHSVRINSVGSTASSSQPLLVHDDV

IC50 [1] [nM]	inhibition at 0.1 µM [1] [%]	inhibition at 1 µM [2] [%]	IC50 [2] [nM]	SMILES
> 100	22	8		COc1cc2nccc(Oc3ccc(NC(=S)NC(=O)c4ccc(-c5ccccc5)cc4)c(F)c3)c2cc1OC [Example 1125, N-(4-Phenylbenzoyl)-N′-{4-[(6,7-dimethoxy-4-quinolyl)oxy]-2-fluorophenyl}thiourea]
> 100	70	35		COc1cc2nccc(Oc3ccc(NC(=S)NC(=O)c4ccc5c(c4)OCO5)cc3Cl)c2cc1OC [Example 1126, N-(1,3-Benzodioxol-5-ylcarbonyl)-N′-{3-chloro-4-[(6,7-dimethoxy-4-quinolyl)oxy]phenyl}thiourea]
> 100	47	17		CCCCCCCCc1ccc(C(=O)NC(=S)Nc2ccc(Oc3ccnc4cc(OC)c(OC)cc34)cc2)cc1 [Example 1128, N-{4-[(6,7-Dimethoxy-4-quinolyl)oxy]phenyl}-N′-(4-octylbenzoyl)thiourea]
< 10			547	COc1cc2nccc(Oc3ccc(NC(=S)NC(=O)N4CCc5ccccc5C4)cc3)c2cc1OC [Example 1130, N-{4-[(6,7-Dimethoxy-4-quinolyl)oxy]phenyl}-N′-(1,2,3,4-tetrahydro-2-isoquinolylcarbonyl)thiourea]
51			192	COc1cc2nccc(Oc3ccc(NC(=S)NC(=O)CCC4CCCC4)cc3)c2cc1OC [Example 1131, N-(3-Cyclopentylpropanoyl)-N′-{4-[(6,7-dimethoxy-4-quinolyl)oxy]phenyl}thiourea]
< 10			146	COc1cc2ncnc(Oc3ccc(NC(=S)NC(=O)CCC4CCCC4)cc3)c2cc1OC [Example 1132, N-(3-Cyclopentylpropanoyl)-N′-{4-[(6,7-dimethoxy-4-quinazolinyl)oxy]phenyl}thiourea]
< 10			42	COc1cc2ncnc(Oc3ccc(NC(=S)NC(=O)CCc4ccccc4C)cc3)c2cc1OC [Example 1133, N-{4-[(6,7-Dimethoxy-4-quinazolinyl)oxy]phenyl}-N′-[3-(2-methylphenyl)propanoyl]thiourea]
< 10			239	COc1cc2nccc(Oc3ccc(NC(=S)NC(=O)CCSC)cc3)c2cc1OC [Example 1135, N-{4-[(6,7-Dimethoxy-4-quinolyl)oxy]phenyl}-N′-[3-(methylsulphenyl)propanoyl]thiourea]
14			639	COc1cc2nccc(Oc3ccc(NC(=S)NC(=O)c4ccc(CCl)cc4)cc3)c2cc1OC [Example 1136, N-[4-(Chloromethyl)benzoyl]-N′-{4-[(6,7-dimethoxy-4-quinolyl)oxy]phenyl}thiourea]
28		38		COc1cc2nccc(Oc3ccc(NC(=S)NC(=O)c4ccc(CCl)cc4)cc3Cl)c2cc1OC [Example 1137, N-{3-Chloro-4-[(6,7-dimethoxy-4-quinolyl)oxy]phenyl}-N′-[4-(chloromethyl)benzoyl]thiourea]
12			783	COc1cc2ncnc(Oc3ccc(NC(=S)NC(=O)CCCc4ccccc4)cc3)c2cc1OC [Example 1139, N-{4-[(6,7-Dimethoxy-4-quinazolinyl)oxy]phenyl}-N′-(4-phenylbutanoyl)thiourea]
< 10			416	COc1ccccc1CCC(=O)NC(=S)Nc1ccc(Oc2ncnc3cc(OC)c(OC)cc23)cc1 [Example 1141, N-{4-[(6,7-Dimethoxy-4-quinazolinyl)oxy]phenyl}-N′-[3-(2-methoxyphenyl)propanoyl]thiourea]
28		30		COc1cc2ncnc(Oc3ccc(NC(=S)NC(=O)C(C)Oc4ccccc4Cl)cc3)c2cc1OC (centres unmarked) [Example 1144, N-[2-(2-Chlorophenoxy)propanoyl]-N′-{4-[(6,7-dimethoxy-4-quinazolinyl)oxy]phenyl}thiourea]
23			552	COc1cc2nccc(Oc3ccc(NC(=S)NC(=O)c4ccc(C)s4)cc3)c2cc1OC [Example 1146, N-{4-[(6,7-Dimethoxy-4-quinolyl)oxy]phenyl}-N′-[(5-methyl-2-thienyl)carbonyl]thiourea]
10			105	COc1cc2nccc(Oc3ccc(NC(=S)NC(=O)Cc4ccccc4)cc3Cl)c2cc1OC [Example 1147, N-{3-Chloro-4-[(6,7-dimethoxy-4-quinolyl)oxy]phenyl}-N′-(2-phenylacetyl)thiourea]
< 10			42	COc1cc2ncnc(Oc3ccc(NC(=S)NC(=O)Cc4ccccc4)cc3)c2cc1OC [Example 1148, N-{4-[(6,7-Dimethoxy-4-quinazolinyl)oxy]phenyl}-N′-(2-phenylacetyl)thiourea]
43			150	CCN(C(=S)NC(=O)Cc1ccccc1)c1ccc(Oc2ccnc3cc(OC)c(OC)cc23)cc1 [Example 1149, N-{4-[(6,7-Dimethoxy-4-quinolyl)oxy]phenyl}-N-ethyl-N′-(2-phenylacetyl)thiourea]
51			192	COc1cc2ncnc(Oc3ccc(N)c(N4CCOCC4)c3)c2cc1OC [Example 1150]
< 10			146	COc1cc2ncnc(Oc3ccc(NC(=S)NC(=O)c4ccccc4C)c(N4CCOCC4)c3)c2cc1OC [Example 1151, N-{4-[(6,7-Dimethoxy-4-quinazolinyl)oxy]-2-morpholinophenyl}-N′-(2-methylbenzoyl)thiourea]
43		13		COc1cc2nccc(Oc3ccc(NC(=S)NC(=O)c4ccc(CN5CCOCC5)cc4)cc3)c2cc1OC [Example 1153, N-{4-[(6,7-Dimethoxy-4-quinolyl)oxy]phenyl}-N′-[4-(morpholinomethyl)benzoyl]thiourea]
49		21		COc1cc2ncnc(Oc3ccc(NC(=S)NC(=O)c4ccc(C)nc4)cc3)c2cc1OC [Example 1154, N-{4-[(6,7-Dimethoxy-4-quinazolinyl)oxy]phenyl}-N′-[(6-methyl-3-pyridyl)carbonyl]thiourea]
17		31		COc1cc2ncnc(Oc3ccc(NC(=S)NC(=O)c4ccncc4)cc3)c2cc1OC [Example 1155, N-{4-[(6,7-Dimethoxy-4-quinazolinyl)oxy]phenyl}-N′-(4-pyridylcarbonyl)thiourea]
> 100	35	28		COc1cc2ncnc(Oc3ccc(NC(=S)NC(=O)c4ccccn4)cc3)c2cc1OC [Example 1156, N-{4-[(6,7-Dimethoxy-4-quinazolinyl)oxy]phenyl}-N′-(2-pyridylcarbonyl)thiourea]
14			327	COc1cc2nccc(Oc3ccc(NC(=S)NC(=O)C4CCCCC4)cc3Cl)c2cc1OC [Example 1179, N-{3-Chloro-4-[(6,7-dimethoxy-4-quinolyl)oxy]phenyl}-N′-cyclohexylcarbonylthiourea]
< 10			480	COc1cc2ncnc(Oc3ccc(NC(=S)NC(=O)C4CCCCC4)cc3)c2cc1OC [Example 1180, N-Cyclohexylcarbonyl-N′-{4-[(6,7-dimethoxy-4-quinazolinyl)oxy]phenyl}thiourea]
35		26		COc1cc2ncnc(Oc3ccc(NC(=S)NC(=O)C4CC4)cc3)c2cc1OC [Example 1181, N-Cyclopropylcarbonyl-N′-{4-[(6,7-dimethoxy-4-quinazolinyl)oxy]phenyl}thiourea]
